Measured values reported in patent US5064954A, “Process for producing halomethylcarbapenems” (Shionogi & Co., Ltd., priority 1990, dated 1991).
≈ marks a conversion by molar mass, not a printed value. Counter-ions that a name gives are not always drawn.

Legend:
Type in all cases: cell-based
[1] = system: Ps. aeruginosa SR-24; assay: MIC against Ps. aeruginosa SR-24; conditions: Pseudomonas aeruginosa, SR24
Description: |MIC: μg/ml (inoculum size = 10^5 /ml) |P = Ps. aeruginosa SR-24

[2] = system: S. aureus Smith; assay: MIC against S. aureus Smith; conditions: Staphylococcus aureus
Description: |MIC: μg/ml (inoculum size = 10^5 /ml) |S = S. aureus Smith

[3] = system: E. coli EC-14; assay: MIC against E. coli EC-14; conditions: Escherichia coli, EC14
Description: |MIC: μg/ml (inoculum size = 10^5 /ml) |E = E. coli EC-14

[4] = Table I, P = Ps. aeruginosa SR-24, inoculum size = 10^5 /ml
[5] = Table I, S = S. aureus Smith, inoculum size = 10^5 /ml
[6] = Table I, E = E. coli EC-14, inoculum size = 10^5 /ml
[7] = Table II, P (key, unit and inoculum given only in Table I)
[8] = Table II, S (key, unit and inoculum given only in Table I)
[9] = Table II, E (key, unit and inoculum given only in Table I)
[10] = Table III, P (key, unit and inoculum given only in Table I)
[11] = Table III, S (key, unit and inoculum given only in Table I)
[12] = Table III, E (key, unit and inoculum given only in Table I)

SMILES	MIC [1, 4] [µg/mL]	MIC [2, 5] [µg/mL]	MIC [3, 6] [µg/mL]	also measured
CC(O)[C@H]1C(=O)N2C(C(=O)[O-])=C(C[n+]3ccsc3)[C@H](C)[C@H]12 (stereo partly drawn) [Table I No. 1]	3.13 (≈ 10.2 µM)	0.025 (≈ 0.0811 µM)	0.1 (≈ 0.324 µM)	
CC(O)[C@H]1C(=O)N2C(C(=O)[O-])=C(C[n+]3ccsc3N)[C@H](C)[C@H]12 (stereo partly drawn) [Table I No. 2]	6.25 (≈ 19.3 µM)	0.0125 (≈ 0.0387 µM)	0.78 (≈ 2.41 µM)	
CC(O)[C@H]1C(=O)N2C(C(=O)[O-])=C(C[n+]3ccccc3)[C@H](C)[C@H]12 (stereo partly drawn) [Table I No. 3, 1β-methyl-2-pyridiniomethyl-6α-(1-hydroxyethyl)-1-carba-2-penem-4-carboxylate]	1.56 (≈ 5.16 µM)	0.0125 (≈ 0.0413 µM)	0.1 (≈ 0.331 µM)	
Cc1cccc[n+]1CC1=C(C(=O)[O-])N2C(=O)[C@H](C(C)O)[C@H]2[C@H]1C (stereo partly drawn) [Table I No. 4]	3.13 (≈ 9.89 µM)	0.025 (≈ 0.079 µM)	0.2 (≈ 0.632 µM)	
Cc1ccc[n+](CC2=C(C(=O)[O-])N3C(=O)[C@H](C(C)O)[C@H]3[C@H]2C)c1 (stereo partly drawn) [Table I No. 5]	1.56 (≈ 4.93 µM)	0.025 (≈ 0.079 µM)	0.2 (≈ 0.632 µM)	
Cc1cc[n+](CC2=C(C(=O)[O-])N3C(=O)[C@H](C(C)O)[C@H]3[C@H]2C)cc1 (stereo partly drawn) [Table I No. 6]	3.13 (≈ 9.89 µM)	0.025 (≈ 0.079 µM)	0.39 (≈ 1.23 µM)	
CCc1cc[n+](CC2=C(C(=O)[O-])N3C(=O)[C@H](C(C)O)[C@H]3[C@H]2C)cc1 (stereo partly drawn) [Table I No. 7]	3.13 (≈ 9.47 µM)	0.025 (≈ 0.0757 µM)	0.39 (≈ 1.18 µM)	
CC(O)[C@H]1C(=O)N2C(C(=O)[O-])=C(C[n+]3cccc4c3CCC4)[C@H](C)[C@H]12 (stereo partly drawn) [Table I No. 8]	6.25 (≈ 18.3 µM)	0.025 (≈ 0.073 µM)	0.2 (≈ 0.584 µM)	
CC(O)[C@H]1C(=O)N2C(C(=O)[O-])=C(C[n+]3cccc(CN)c3)[C@H](C)[C@H]12 (stereo partly drawn) [Table I No. 9]	3.13 (≈ 9.45 µM)	0.05 (≈ 0.151 µM)	0.78 (≈ 2.35 µM)	
CC(O)[C@H]1C(=O)N2C(C(=O)[O-])=C(C[n+]3ccc(CN)cc3)[C@H](C)[C@H]12 (stereo partly drawn) [Table I No. 10]	3.13 (≈ 9.45 µM)	0.05 (≈ 0.151 µM)	0.78 (≈ 2.35 µM)	
CC(O)[C@H]1C(=O)N2C(C(=O)[O-])=C(C[n+]3cccc(CNC=O)c3)[C@H](C)[C@H]12 (stereo partly drawn) [Table I No. 11]	3.13 (≈ 8.71 µM)	0.05 (≈ 0.139 µM)	0.78 (≈ 2.17 µM)	
CCC(=O)c1cc[n+](CC2=C(C(=O)[O-])N3C(=O)[C@H](C(C)O)[C@H]3[C@H]2C)cc1 (stereo partly drawn) [Table I No. 13]	3.13 (≈ 8.73 µM)	0.05 (≈ 0.14 µM)	0.76 (≈ 2.12 µM)	
CC(O)[C@H]1C(=O)N2C(C(=O)[O-])=C(C[n+]3cccc(C(N)=O)c3)[C@H](C)[C@H]12 (stereo partly drawn) [Table I No. 14]	1.56 (≈ 4.52 µM)	0.025 (≈ 0.0724 µM)	0.39 (≈ 1.13 µM)	
CC(O)[C@H]1C(=O)N2C(C(=O)[O-])=C(C[n+]3ccc(C(N)=O)cc3)[C@H](C)[C@H]12 (stereo partly drawn) [Table I No. 15]	1.56 (≈ 4.52 µM)	0.025 (≈ 0.0724 µM)	0.39 (≈ 1.13 µM)	
CC(O)[C@H]1C(=O)N2C(C(=O)[O-])=C(C[n+]3cccc(-c4cnco4)c3)[C@H](C)[C@H]12 (stereo partly drawn) [Table I No. 16]	1.56 (≈ 4.22 µM)	0.025 (≈ 0.0677 µM)	0.2 (≈ 0.541 µM)	
CC(O)[C@H]1C(=O)N2C(C(=O)[O-])=C(C[n+]3ccc(-c4ncco4)cc3)[C@H](C)[C@H]12 (stereo partly drawn) [Table I No. 17]	3.13 (≈ 8.47 µM)	0.025 (≈ 0.0677 µM)	0.2 (≈ 0.541 µM)	
CC(O)[C@H]1C(=O)N2C(C(=O)[O-])=C(C[n+]3ccc(-c4cnco4)cc3)[C@H](C)[C@H]12 (stereo partly drawn) [Table I No. 18]	6.25 (≈ 16.9 µM)	0.025 (≈ 0.0677 µM)	0.39 (≈ 1.06 µM)	
CC(O)[C@H]1C(=O)N2C(C(=O)[O-])=C(C[n+]3cccc(N)c3)[C@H](C)[C@H]12 (stereo partly drawn) [Table I No. 19]	1.56 (≈ 4.92 µM)	0.0125 (≈ 0.0394 µM)	0.2 (≈ 0.63 µM)	
CC(O)[C@H]1C(=O)N2C(C(=O)[O-])=C(C[n+]3ccc(N)cc3)[C@H](C)[C@H]12 (stereo partly drawn) [Table I No. 20]	6.25 (≈ 19.7 µM)	0.0125 (≈ 0.0394 µM)	0.2 (≈ 0.63 µM)	

SMILES	MIC [1, 4] [µg/mL]	MIC [2, 5] [µg/mL]	MIC [3, 6] [µg/mL]	also measured
CC(O)[C@H]1C(=O)N2C(C(=O)[O-])=C(C[n+]3ccc(N)c(N)c3)[C@H](C)[C@H]12 (stereo partly drawn) [Table I No. 21]	3.13 (≈ 9.42 µM)	0.0125 (≈ 0.0376 µM)	0.2 (≈ 0.602 µM)	
CC(O)[C@H]1C(=O)N2C(C(=O)[O-])=C(C[n+]3ccc(N(C)C)cc3)[C@H](C)[C@H]12 (stereo partly drawn) [Table I No. 22]	3.13 (≈ 9.06 µM)	0.0125 (≈ 0.0362 µM)	0.1 (≈ 0.29 µM)	
CC(O)[C@H]1C(=O)N2C(C(=O)[O-])=C(C[n+]3cccc(O)c3)[C@H](C)[C@H]12 (stereo partly drawn) [Table I No. 23]	12.5 (≈ 39.3 µM)	0.05 (≈ 0.157 µM)	0.2 (≈ 0.628 µM)	
COc1ccc[n+](CC2=C(C(=O)[O-])N3C(=O)[C@H](C(C)O)[C@H]3[C@H]2C)c1 (stereo partly drawn) [Table I No. 24]	3.13 (≈ 9.42 µM)	0.025 (≈ 0.0752 µM)	0.39 (≈ 1.17 µM)	
COc1cc[n+](CC2=C(C(=O)[O-])N3C(=O)[C@H](C(C)O)[C@H]3[C@H]2C)cc1 (stereo partly drawn) [Table I No. 25]	3.13 (≈ 9.42 µM)	0.025 (≈ 0.0752 µM)	0.39 (≈ 1.17 µM)	
CSc1ccc[n+](CC2=C(C(=O)[O-])N3C(=O)[C@H](C(C)O)[C@H]3[C@H]2C)c1 (stereo partly drawn) [Table I No. 26]	3.13 (≈ 8.98 µM)	0.0125 (≈ 0.0359 µM)	0.39 (≈ 1.12 µM)	
CSc1cc[n+](CC2=C(C(=O)[O-])N3C(=O)[C@H](C(C)O)[C@H]3[C@H]2C)cc1 (stereo partly drawn) [Table I No. 27]	3.13 (≈ 8.98 µM)	0.025 (≈ 0.0718 µM)	0.2 (≈ 0.574 µM)	
CC(O)[C@H]1C(=O)N2C(C(=O)[O-])=C(C[n+]3cccc(F)c3)[C@H](C)[C@H]12 (stereo partly drawn) [Table I No. 28]	3.13 (≈ 9.77 µM)	0.025 (≈ 0.078 µM)	0.39 (≈ 1.22 µM)	
CC(O)[C@H]1C(=O)N2C(C(=O)[O-])=C(C[N+]3(C)CCCC3)[C@H](C)[C@H]12 (stereo partly drawn) [Table II No. 1]				MIC [1, 7]: 3.13 µg/mL (≈ 10.1 µM); MIC [2, 8]: 0.025 µg/mL (≈ 0.0811 µM); MIC [3, 9]: 0.1 µg/mL (≈ 0.324 µM)
CC(O)[C@H]1C(=O)N2C(C(=O)[O-])=C(C[N+]3(CC(N)=O)CCCC3)[C@H](C)[C@H]12 (stereo partly drawn) [Table II No. 2]				MIC [1, 7]: 12.5 µg/mL (≈ 35.6 µM); MIC [2, 8]: 0.1 µg/mL (≈ 0.285 µM); MIC [3, 9]: 0.2 µg/mL (≈ 0.569 µM)
CC(O)[C@H]1C(=O)N2C(C(=O)[O-])=C(C[N+]3(CC(=O)O)CCCC3)[C@H](C)[C@H]12 (stereo partly drawn) [Table II No. 3]				MIC [1, 7]: 50 µg/mL (≈ 142 µM); MIC [2, 8]: 0.39 µg/mL (≈ 1.11 µM); MIC [3, 9]: 0.39 µg/mL (≈ 1.11 µM)
CC(O)[C@H]1C(=O)N2C(C(=O)[O-])=C(C[N+]3(C)CCCCC3)[C@H](C)[C@H]12 (stereo partly drawn) [Table II No. 4, 1β-methyl-2-(1-methylpiperidinio-1-yl)methyl-6α-(1-hydroxyethyl)-1-carba-2-penem-4-carboxylate]				MIC [1, 7]: 3.13 µg/mL (≈ 9.71 µM); MIC [2, 8]: 0.025 µg/mL (≈ 0.0775 µM); MIC [3, 9]: 0.1 µg/mL (≈ 0.31 µM)
CC(O)[C@H]1C(=O)N2C(C(=O)[O-])=C(C[N+]34CCC(CC3)CC4)[C@H](C)[C@H]12 (stereo partly drawn) [Table II No. 5, 1β-methyl-2-(quinuclidinio-1-yl)-methyl-6α-(1-hydroxyethyl)-1-carba-2-penem-4-carboxylate]				MIC [1, 7]: 6.25 µg/mL (≈ 18.7 µM); MIC [2, 8]: 0.025 µg/mL (≈ 0.0748 µM); MIC [3, 9]: 0.2 µg/mL (≈ 0.598 µM)
CC(O)[C@H]1C(=O)N2C(C(=O)[O-])=C(C[N+]34CCN(CC3)CC4)[C@H](C)[C@H]12 (stereo partly drawn) [Table II No. 6]				MIC [1, 7]: 6.25 µg/mL (≈ 18.6 µM); MIC [2, 8]: 0.1 µg/mL (≈ 0.298 µM); MIC [3, 9]: 0.39 µg/mL (≈ 1.16 µM)
CC(O)[C@H]1C(=O)N2C(C(=O)[O-])=C(CN[n+]3ccccc3)[C@H](C)[C@H]12 (stereo partly drawn) [Table III No. 1]				MIC [1, 10]: 12.5 µg/mL (≈ 39.4 µM); MIC [2, 11]: 0.025 µg/mL (≈ 0.0788 µM); MIC [3, 12]: 0.39 µg/mL (≈ 1.23 µM)
CC(O)[C@H]1C(=O)N2C(C(=O)O)=C(CN3CCCC3)[C@H](C)[C@H]12 (stereo partly drawn) [Table III No. 2]				MIC [1, 10]: 12.5 µg/mL (≈ 42.5 µM); MIC [2, 11]: 0.0125 µg/mL (≈ 0.0425 µM); MIC [3, 12]: 0.39 µg/mL (≈ 1.32 µM)
CC(O)[C@H]1C(=O)N2C(C(=O)O)=C(CN3CCC(N)C3)[C@H](C)[C@H]12 (stereo partly drawn) [Table III No. 3]				MIC [1, 10]: 3.13 µg/mL (≈ 10.1 µM); MIC [2, 11]: 0.05 µg/mL (≈ 0.162 µM); MIC [3, 12]: 0.78 µg/mL (≈ 2.52 µM)
CC(O)[C@H]1C(=O)N2C(C(=O)O)=C(CN3CCCCC3)[C@H](C)[C@H]12 (stereo partly drawn) [Table III No. 4, 1β-methyl-2-(piperidin-1-yl)methyl-6α-(1-hydroxyethyl)-1-carba-2-penem-4-carboxylic acid sodium salt]				MIC [1, 10]: 50 µg/mL; MIC [2, 11]: 0.0125 µg/mL; MIC [3, 12]: 1.56 µg/mL
